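Dose response: 5 concentrations. Exposure: 48 h. Format: 96-well plates. Endpoint: linear interpolation; highest concentration if not reached. At the GI50, growth is halved. TGI: concentration producing complete growth inhibition.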
Tests used:
Assay in all cases: inhibition of tumour cell growth, NCI panel, 48 h
[1] = test system: CAKI-1 renal
[2] = test system: SR leukemia
[3] = test system: HOP-62 NSCLC
[4] = test system: OVCAR-3 ovarian
[5] = test system: LOX IMVI melanoma
[6] = test system: NCI-H522 lung
[7] = test system: MOLT-4 leukemia
[8] = test system: HCC-2998 colon
[9] = test system: K-562 leukemia
[10] = test system: UACC-62 melanoma
[11] = test system: SK-MEL-28 melanoma
[12] = test system: HCT-15 colon
[13] = test system: UO-31 renal
[14] = test system: OVCAR-8 ovarian
[15] = test system: EKVX NSCLC
[16] = test system: SF-295 CNS
[17] = test system: HS 578T breast
[18] = test system: 786-0 renal
[19] = test system: NCI-H226 lung
[20] = test system: MCF7 breast
[21] = test system: COLO 205 colon
[22] = test system: BT-549 breast
[23] = test system: M14 melanoma
[24] = test system: A498 renal
[25] = test system: ACHN renal
[26] = test system: NCI/ADR-RES ovarian
[27] = test system: HT29 colon
[28] = test system: IGROV1 ovarian
[29] = test system: OVCAR-4 ovarian

Molecule `O=C(c1ccco1)c1nc2cc(F)ccc2[n+]([O-])c1C(F)(F)F` has a GI50 [1] of 15.8 µM, a TGI [1] of 30.8 µM and a GI50 [2] of 17.4 µM. For the same molecule, the TGI [2] was 60.9 µM, the GI50 [3] was 81.4 µM and the TGI [3] was greater than 100 µM. It also gave a GI50 [4] of 20.8 µM, a TGI [4] of 46.7 µM and a GI50 [5] of 19.4 µM. For the same molecule, the TGI [5] was 39.2 µM, the GI50 [6] was 14.7 µM and the TGI [6] was 32.2 µM. The GI50 [7] was 24.8 µM, the TGI [7] was 66.3 µM and the GI50 [8] was 17 µM. For the same molecule, the TGI [8] was 32 µM, the GI50 [9] was 9.59 µM and the TGI [9] was 47.9 µM. For the same molecule, the GI50 [10] was 24.8 µM, the TGI [10] was 68.2 µM and the GI50 [11] was 29.4 µM. It also gave a TGI [11] of 95.4 µM, a GI50 [12] of 17.8 µM and a TGI [12] of 39.1 µM. For the same molecule, the GI50 [13] was 28.1 µM, the TGI [13] was greater than 100 µM and the GI50 [14] was 22.5 µM. For the same molecule, the TGI [14] was 62 µM, the GI50 [15] was 18.6 µM and the TGI [15] was 39.9 µM. For the same molecule, the GI50 [16] was 51.8 µM, the TGI [16] was greater than 100 µM and the GI50 [17] was 97.4 µM. For the same molecule, the TGI [17] was greater than 100 µM, the GI50 [18] was 53.2 µM and the TGI [18] was greater than 100 µM. For the same molecule, the GI50 [19] was 99.1 µM, the TGI [19] was greater than 100 µM and the GI50 [20] was 56.2 µM. For the same molecule, the TGI [20] was greater than 100 µM, the GI50 [21] was 16 µM and the TGI [21] was 32.7 µM. The GI50 [22] was 22.2 µM, the TGI [22] was 51.6 µM and the GI50 [23] was 17.6 µM. The TGI [23] was 38.7 µM, the GI50 [24] was 86.6 µM and the TGI [24] was greater than 100 µM. The GI50 [25] was 27.6 µM, the TGI [25] was greater than 100 µM and the GI50 [26] was 21.5 µM. The TGI [26] was 66.5 µM, the GI50 [27] was 24 µM and the TGI [27] was 79 µM. For the same molecule, the GI50 [28] was 17.9 µM, the TGI [28] was 36.7 µM and the GI50 [29] was 21.5 µM. It also gave a TGI [29] of 50.5 µM.

Source: PubChem BioAssay (NCI)
